Test results reported in patent US9487508B2, “SGC stimulators” (IRONWOOD PHARMACEUTICALS, INC., priority 2012, dated 2016).

Assays:
[1] = biological target: T1, Human soluble guanylate cyclase enzyme (hsGC) (Homo sapiens, UniProt Q02108+Q02153); assay: Purified human sGC enzyme synergy assay in the presence of sodium nitroprusside (SNP); assay type: biochemical; conditions: 30 μM compound, 1 μM SNP; fold change of specific activity vs DMSO control
T1 construct: purchased Enzo Inc. ALX-201-177
T1 sequence (Q02153 1-619): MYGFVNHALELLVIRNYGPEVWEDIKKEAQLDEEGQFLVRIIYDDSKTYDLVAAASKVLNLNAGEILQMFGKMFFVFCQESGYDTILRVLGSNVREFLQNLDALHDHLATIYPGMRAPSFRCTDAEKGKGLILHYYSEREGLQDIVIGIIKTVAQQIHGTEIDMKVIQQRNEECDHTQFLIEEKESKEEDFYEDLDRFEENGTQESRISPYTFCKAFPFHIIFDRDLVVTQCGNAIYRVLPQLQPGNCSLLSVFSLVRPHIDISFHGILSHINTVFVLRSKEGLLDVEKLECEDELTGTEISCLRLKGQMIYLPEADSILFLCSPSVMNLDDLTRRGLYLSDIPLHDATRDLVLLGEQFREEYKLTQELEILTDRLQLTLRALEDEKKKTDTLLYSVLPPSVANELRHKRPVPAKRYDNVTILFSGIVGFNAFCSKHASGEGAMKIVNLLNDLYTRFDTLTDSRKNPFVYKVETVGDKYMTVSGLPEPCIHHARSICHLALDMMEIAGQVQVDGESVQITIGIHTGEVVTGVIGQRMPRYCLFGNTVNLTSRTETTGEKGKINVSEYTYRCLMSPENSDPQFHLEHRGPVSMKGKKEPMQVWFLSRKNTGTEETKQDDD
T1 sequence (Q02108 1-690): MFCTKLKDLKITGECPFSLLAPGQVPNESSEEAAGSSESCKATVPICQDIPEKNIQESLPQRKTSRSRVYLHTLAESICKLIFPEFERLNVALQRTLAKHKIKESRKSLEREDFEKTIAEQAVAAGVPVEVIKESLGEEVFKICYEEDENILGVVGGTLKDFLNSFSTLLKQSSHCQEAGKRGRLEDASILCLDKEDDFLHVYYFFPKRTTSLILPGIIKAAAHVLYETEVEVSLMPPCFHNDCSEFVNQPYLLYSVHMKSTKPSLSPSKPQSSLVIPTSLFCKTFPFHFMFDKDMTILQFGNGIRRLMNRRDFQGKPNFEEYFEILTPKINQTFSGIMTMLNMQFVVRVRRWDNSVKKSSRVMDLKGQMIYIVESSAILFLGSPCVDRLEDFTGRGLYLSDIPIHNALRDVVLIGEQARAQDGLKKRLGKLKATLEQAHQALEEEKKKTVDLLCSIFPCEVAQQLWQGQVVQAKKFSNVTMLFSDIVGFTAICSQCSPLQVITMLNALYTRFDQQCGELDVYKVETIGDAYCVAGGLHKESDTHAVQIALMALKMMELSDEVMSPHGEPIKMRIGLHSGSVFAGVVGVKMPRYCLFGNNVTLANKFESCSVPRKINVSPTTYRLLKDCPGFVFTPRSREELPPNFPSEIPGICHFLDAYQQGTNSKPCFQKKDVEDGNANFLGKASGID
Procedure: (§1) Human soluble guanylate cyclase enzyme (hsGC) obtained from Enzo Inc. (P/N: ALX-201-177) was used to evaluate the activity of test compounds. The assay reactions contained 0.1 M Tris (pH 8.0), 0.5 mg/mL BSA (pH 8.0), 2 mM DTT, 2 mM MgCl2, 300 μM GTP, 1 mM 3-isobutyl-1-methylxanthine (IBMX) and 5 ng human soluble guanylate cyclase enzyme. Test compounds in DMSO were then added (2 μL, 10 or 30 μM final concentration) and incubated (water, 200 μL, 96-well plate format) at 37° C. for 30 minutes. The controls were carried out using 2 μL DMSO. After the 30 minute incubation, the reaction was stopped with the addition of 200 μL of cold methanol. The plate was then centrifuged at 3,200 rpm for 10 minutes at room temperature. Supernatants (200 μL) were collected and transferred to a new 96 well plate for analysis by HPLC LC/MS/MS.
(§2) An 8 point cGMP (Sigma-Aldrich P/N: G6129) standard curve was prepared in assay buffer ranging from 0.156-20 μM. Samples for the cGMP standard curve were then diluted with an equal volume of methanol resulting in final cGMP concentrations of 0.078-10 μM.
(§3) The cGMP standard curve was generated using GraphPad Prism Software.
Calculations: Specific Activity was determined by the amount of cGMP formed (nmoles) per mg of sGC per min. Enzyme “fold-change” was calculated by dividing Specific Activity for test compounds by Specific Activity of DMSO controls. […]

[2] = biological target: T1, Human soluble guanylate cyclase enzyme (hsGC); assay: Purified human sGC enzyme activity assay (without SNP); assay type: biochemical; conditions: 30 μM compound, fold change of specific activity vs DMSO control
Procedure: as §1, §2, §3
Calculations: Specific Activity was determined by the amount of cGMP formed (nmoles) per mg of sGC per min. Enzyme “fold-change” was calculated by dividing Specific Activity for test compounds by Specific Activity of DMSO controls.

Enzyme Activity (increase at 30 μM with SNP) [1]: D (D = 10 or <20 fold increase)
Enzyme Activity (increase at 30 μM without SNP) [2]: C (C = 5 to <10 fold increase)
SMILES: Nc1ccnc(-n2cc(-c3ncco3)c(Cc3ccccc3F)n2)n1 [Compound I-2]
